Experimental data as given in PubChem BioAssay (NCI).
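Where inhibition never reached the appropriate level, the endpoint shown equals the highest concentration tested. Otherwise, values were interpolated linearly from a five-concentration, 48-hour dose response in 96-well plates. TGI: concentration producing complete growth inhibition.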

What was measured:
Assay in all cases: growth of human tumour cells (NCI), 48 h
ACHN renal = test system: ACHN renal
A498 renal = test system: A498 renal
OVCAR-3 ovarian = test system: OVCAR-3 ovarian
OVCAR-4 ovarian = test system: OVCAR-4 ovarian
SNB-75 CNS = test system: SNB-75 CNS
HCC-2998 colon = test system: HCC-2998 colon
RXF 393 renal = test system: RXF 393 renal
OVCAR-5 ovarian = test system: OVCAR-5 ovarian
786-0 renal = test system: 786-0 renal
M14 melanoma = test system: M14 melanoma
SN12C renal = test system: SN12C renal
SF-539 CNS = test system: SF-539 CNS
K-562 leukemia = test system: K-562 leukemia
NCI-H23 lung = test system: NCI-H23 lung
SK-MEL-28 melanoma = test system: SK-MEL-28 melanoma
MDA-MB-435 = test system: MDA-MB-435
SK-OV-3 ovarian = test system: SK-OV-3 ovarian
NCI-H522 lung = test system: NCI-H522 lung
SK-MEL-2 melanoma = test system: SK-MEL-2 melanoma
LOX IMVI melanoma = test system: LOX IMVI melanoma
HOP-62 NSCLC = test system: HOP-62 NSCLC
SK-MEL-5 melanoma = test system: SK-MEL-5 melanoma
NCI/ADR-RES ovarian = test system: NCI/ADR-RES ovarian
CCRF-CEM leukemia = test system: CCRF-CEM leukemia
SF-268 CNS = test system: SF-268 CNS
TK-10 renal = test system: TK-10 renal
DU-145 prostate = test system: DU-145 prostate
MALME-3M melanoma = test system: MALME-3M melanoma
PC-3 prostate = test system: PC-3 prostate
A549 NSCLC = test system: A549 NSCLC
COLO 205 colon = test system: COLO 205 colon
KM12 colon = test system: KM12 colon
MOLT-4 leukemia = test system: MOLT-4 leukemia
UACC-257 melanoma = test system: UACC-257 melanoma
EKVX NSCLC = test system: EKVX NSCLC
SF-295 CNS = test system: SF-295 CNS
T-47D breast = test system: T-47D breast
CAKI-1 renal = test system: CAKI-1 renal
RPMI-8226 leukemia = test system: RPMI-8226 leukemia
MCF7 breast = test system: MCF7 breast
SR leukemia = test system: SR leukemia
MDA-N = test system: MDA-N
SNB-19 CNS = test system: SNB-19 CNS
HCT-116 colon = test system: HCT-116 colon
U251 CNS = test system: U251 CNS
IGROV1 ovarian = test system: IGROV1 ovarian
MDA-MB-231 breast = test system: MDA-MB-231 breast
NCI-H226 lung = test system: NCI-H226 lung
HT29 colon = test system: HT29 colon
HOP-92 NSCLC = test system: HOP-92 NSCLC
NCI-H460 lung = test system: NCI-H460 lung
OVCAR-8 ovarian = test system: OVCAR-8 ovarian
SW-620 colon = test system: SW-620 colon
UO-31 renal = test system: UO-31 renal
HL-60(TB) leukemia = test system: HL-60(TB) leukemia
HS 578T breast = test system: HS 578T breast

Cc1ccc([N+](=O)[O-])c2c(NCCC[N+](C)(C)[O-])ccnc12
TGI (ACHN renal): > 100 µM | TGI (A498 renal): 90.5 µM | TGI (OVCAR-3 ovarian): > 100 µM | TGI (OVCAR-4 ovarian): 59.2 µM | TGI (SNB-75 CNS): > 100 µM | TGI (HCC-2998 colon): 58.9 µM | TGI (RXF 393 renal): > 100 µM | TGI (OVCAR-5 ovarian): 84.3 µM | TGI (786-0 renal): > 100 µM | TGI (M14 melanoma): > 100 µM | TGI (SN12C renal): > 100 µM | TGI (SF-539 CNS): > 100 µM | TGI (K-562 leukemia): > 100 µM | TGI (NCI-H23 lung): > 100 µM | TGI (SK-MEL-28 melanoma): > 100 µM | TGI (MDA-MB-435): > 100 µM | TGI (SK-OV-3 ovarian): > 100 µM | TGI (NCI-H522 lung): 32.6 µM | TGI (SK-MEL-2 melanoma): > 100 µM | TGI (LOX IMVI melanoma): > 100 µM | TGI (HOP-62 NSCLC): > 100 µM | TGI (SK-MEL-5 melanoma): 24.6 µM | TGI (NCI/ADR-RES ovarian): > 100 µM | TGI (CCRF-CEM leukemia): > 100 µM | TGI (SF-268 CNS): > 100 µM | TGI (TK-10 renal): > 100 µM | TGI (DU-145 prostate): > 100 µM | TGI (MALME-3M melanoma): > 100 µM | TGI (PC-3 prostate): > 100 µM | TGI (A549 NSCLC): > 100 µM | TGI (COLO 205 colon): > 100 µM | TGI (KM12 colon): > 100 µM | TGI (MOLT-4 leukemia): > 100 µM | TGI (UACC-257 melanoma): 69.8 µM | TGI (EKVX NSCLC): > 100 µM | TGI (SF-295 CNS): > 100 µM | TGI (T-47D breast): > 100 µM | TGI (CAKI-1 renal): > 100 µM | TGI (RPMI-8226 leukemia): > 100 µM | TGI (MCF7 breast): 38.1 µM | TGI (SR leukemia): > 100 µM | TGI (MDA-N): > 100 µM | TGI (SNB-19 CNS): > 100 µM | TGI (HCT-116 colon): > 100 µM | TGI (U251 CNS): > 100 µM | TGI (IGROV1 ovarian): 67.3 µM | TGI (MDA-MB-231 breast): > 100 µM | TGI (NCI-H226 lung): > 100 µM | TGI (HT29 colon): > 100 µM | TGI (HOP-92 NSCLC): > 100 µM | TGI (NCI-H460 lung): 80.1 µM | TGI (OVCAR-8 ovarian): > 100 µM | TGI (SW-620 colon): > 100 µM | TGI (UO-31 renal): > 100 µM | TGI (HL-60(TB) leukemia): > 100 µM | TGI (HS 578T breast): > 100 µM
